Data: patent US20060079453A1, “Hla binding peptides and their uses” (priority 2002, published 2006)
No end group written: not given here.

Assays:
Assay in all cases: biochemical
Assay type in all cases: binding
HLA-DR DRB1*0802 (DR8) = HLA-DR DRB1*0802 (DR8) (Homo sapiens, UniProt P01903+P01911, A100R/A103L/A169T/F76Y/H45Y/I96F/K41T/L162R/M171V/P40S/Q125H/Q178H/Q39Y/Q99D/R218S/R42G/S66Y/V115G/W38E)
HLA-DR DRB1*0701 (DR7) = HLA-DR DRB1*0701 (DR7) (Homo sapiens, UniProt P01903+P01911, A100R/A102G/A103Q/D57E/D86V/E43K/F76Y/K127E/L162R/M171V/P40G/Q125H/Q99D/R33Q/R42Y/R54Q/S133A/S66F/T210M/V115G/Y107V/Y59L/Y89S); details: DRB1 *0701
HLA-DR DRB1*0301 (DR3) = HLA-DR DRB1*0301 (DR3) (Homo sapiens, UniProt P01903+P01911, A100K/A102G/A103R/A169T/F55Y/I96L/K41T/L162R/M171V/P40S/Q125H/Q178H/Q39Y/R42S/S66N/T106N/T262R/W38E/Y61H)
HLA-DR DRB4*0101 (DR53) = HLA-DR DRB4*0101 (DR53) (Homo sapiens, UniProt P01903+P13762, G164S); details: DRB4 *0101
HLA-DR DRB1*1501 (DR15) = HLA-DR DRB1*1501 (DR15) (Homo sapiens, UniProt P01903+P01911); details: DRBI *1501
HLA-DR DRB1*0101 (DR1) = HLA-DR DRB1*0101 (DR1) (Homo sapiens, UniProt P01903+P01911, A100R/D57E/F55L/F60I/F76Y/I96L/L162R/M171V/P40L/Q125E/R42F/V115G/Y59C); details: DRB1 *0101
HLA-DR DRB1*0901 (DR9) = HLA-DR DRB1*0901 (DR9) (Homo sapiens, UniProt P01903+P01911, A100R/A103E/D57H/D86V/F55Y/F60I/F76Y/I96F/K127E/L162R/M171V/P40D/Q125H/Q99R/R33Q/R42F/S133A/S66N/T210M/V115G/W38K/Y107V/Y59G/Y89S); details: DRB1 *0901
HLA-DR DRB5*0101 (DR51) = HLA-DR DRB5*0101 (DR51) (Homo sapiens, UniProt P01903+Q30154); details: DRB5 *0101
HLA-DR DRB1*0405 (DR4) = HLA-DR DRB1*0405 (DR4) (Homo sapiens, UniProt P01903+P01911, A100R/A169T/D86S/F76Y/I96L/K127E/L162R/M171V/N62H/P40V/Q125Y/R42H/S133A/S149N/S66Y/V115G/V209L/W38E); details: DRB1 *0405
HLA-DR DRB1*1302 (DR13) = HLA-DR DRB1*1302 (DR13) (Homo sapiens, UniProt P01903+P01911, A100E/A169T/K41T/L162R/M171V/P40S/Q125H/Q178H/Q39Y/Q99D/R42S/S66N/T262R/V115G/W38E/Y61H); details: DRBI *1302
HLA-DR DRB3*0101 (DR52) = HLA-DR DRB3*0101 (DR52) (Homo sapiens, UniProt P01903+P79483)
HLA-DR DRB1*0401 (DR4) = HLA-DR DRB1*0401 (DR4) (Homo sapiens, UniProt P01903+P01911, A100K/A169T/F76Y/I96L/K127E/L162R/M171V/N62H/P40V/Q125Y/R42H/S133A/S149N/S66Y/V115G/V209L/W38E); details: DRB1 *0401
HLA-DR DRB1*1101 (DR11) = HLA-DR DRB1*1101 (DR11) (Homo sapiens, UniProt P01903+P01911, A100R/A169T/A87E/I96F/K41T/L162R/M171V/P40S/Q125H/Q178H/Q39Y/Q99D/R42S/S66Y/T262R/V115G/W38E); details: DRB1 *1101
Sequence of HLA-DR DRB1*1101 (DR11) (P01903 26-254 limits assumed, other chains not shown): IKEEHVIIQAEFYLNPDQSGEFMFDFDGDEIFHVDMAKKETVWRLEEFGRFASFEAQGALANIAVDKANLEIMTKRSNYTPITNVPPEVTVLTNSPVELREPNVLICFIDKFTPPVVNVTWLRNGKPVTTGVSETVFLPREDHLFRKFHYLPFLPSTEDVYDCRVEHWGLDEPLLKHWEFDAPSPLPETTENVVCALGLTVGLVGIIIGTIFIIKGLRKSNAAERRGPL

Sequence of HLA-DR DRB1*0301 (DR3) (P01903 26-254 limits assumed, other chains not shown): as above
Sequence of HLA-DR DRB1*1302 (DR13) (P01903 26-254 limits assumed, other chains not shown): as above

Row | Sequence | IC50 (HLA-DR DRB1*0802 (DR8)) | IC50 (HLA-DR DRB1*0701 (DR7)) | IC50 (HLA-DR DRB1*0301 (DR3)) | IC50 (HLA-DR DRB4*0101 (DR53)) | IC50 (HLA-DR DRB1*1501 (DR15)) | IC50 (HLA-DR DRB1*0101 (DR1)) | IC50 (HLA-DR DRB1*0901 (DR9)) | IC50 (HLA-DR DRB5*0101 (DR51)) | IC50 (HLA-DR DRB1*0405 (DR4)) | IC50 (HLA-DR DRB1*1302 (DR13)) | IC50 (HLA-DR DRB3*0101 (DR52)) | IC50 (HLA-DR DRB1*0401 (DR4)) | IC50 (HLA-DR DRB1*1101 (DR11))
1 | HLKRYYGRILHYLKA | 237 nM | 214 nM | 3.71 µM | 22 nM | 0.69 nM | 26 nM | 2.9 µM | 2.3 nM | 86 nM | 868 nM | 6.61 µM |  | 
2 | FLRSVFANSLVYGAS | 13400 nM | 16 nM |  |  | 13 nM | 4.3 nM | 15.1 µM | 141 nM | 59 nM | 5.6 nM | 158 µM | 6.7 nM | 0.973 µM
3 | EQTTTSITSLYQLEN | > 54400 nM | 2230 nM | > 144 µM | 29600 nM |  | 19000 nM | 17.4 µM | 48500 nM | 272 nM |  | > 18.7 µM | 170 nM | > 10.5 µM
4 | TSLTFSESIPTPSNR | 17600 nM |  | 17.4 µM | 3480 nM |  |  | 2.46 µM | > 1340 nM | 686 nM | 16 nM | > 95.2 µM | 18 nM | 22.2 µM
5 | QTQKLLWQLNGRLEY | 2040 nM | 3100 nM | 3.55 µM | 88 nM | 20 nM | 32 nM |  |  | 86 nM | 121 nM | 6.58 µM | 55 nM | 20.7 µM
6 | RMSSLHLKRYYGRIL | 277 nM | 283 nM |  | 2260 nM | 1.3 nM | 275 nM | 15 µM | 491 nM | 34 nM | 2530 nM | > 26.2 µM | 993 nM | 1.03 µM
